Reference: patent US9708305B2, “Substituted 1,2,3,4-tetrahydroisoquinoline derivatives for the treatment of hormone-dependent diseases” (UNIVERSITÉ LAVAL, priority 2013, dated 2017)

Tests used:
[1] = tested on: alkaline phosphatase activity in Saos-2 cells; test: Alkaline phosphatase assay (Saos-2 cells), phenol library; type: cell-based; details: 1 nM; control (no treatment) fixed at 100%
Protocol: We also investigated the effect of selected phenol derivatives on alkaline phosphatase activity in Saos-2 cells (FIG. 13B).
Saos-2 cells were used similarly as reported in the cell proliferation assay. The cells were seeded at a density of 2 000 cells/well and treated for 3 days with each compound to be tested. The alkaline phosphatase (ALP) activity was measured using the Sensolyte® pNPP Alkaline Phosphatase Assay Kit *Colorimetric* (AnaSpec, Freemont, Calif.) following the manufacturer's protocol. Briefly, after three days of treatment, the cells were washed twice with washing buffer (provided with the kit) and lysed with 0.2% Triton X-100. The cell lysates were centrifuged and the supernatants were used to determine ALP activity. The supernatants were deposed in a 96-well plate and incubated for 30 minutes with a p-nitrophenyl phosphate solution (provided with the kit). The absorbance at 405 nm was measured with a Thermo max microplate reader (Molecular Devices, Sunnyvale, Calif.). The control (culture media+DMSO) is set to 100% of alkaline phosphatase activity.

[2] = tested on: uterus weight of ovariectomized mice (OVX); details: cited from earlier work
[3] = tested on: AR+ tissues (prostate and seminal vesicles); details: cited from earlier work
Saos-2 (ER+) cells = test: Proliferative activity on Saos-2 (ER+) cells, phenol library; type: cell-based; details: 1 μM (stated for reference compounds); 7 days; control 100%
Protocol: Estrogens are known to have a beneficial effect on bones. […] The phenol derivatives 3′-EO-09 to 3′-EO-11 and 3′-EO-14 to 3′-EO-17 were tested on the osteoblast-like cell line Saos-2 to further evaluate their SERM capacity (FIG. 13A).
The osteoblast-like Saos-2 cells were maintained in culture flasks (175 cm^2 growth area, BD Falcon) at 37° C. in a 5% CO2 humidified atmosphere and grown in McCoy's 5A medium supplemented with 10% fetal bovine serum (FBS), penicillin (100 IU/mL) and streptomycin (100 μg/mL). Penicillin/streptomycin mix, L-Glutamine, normal and charcoal-stripped FBS were purchased from Wisent, Inc. (St-Bruno, QC, Canada), phenol-red free McCoy's 5A was purchased from PromoCell (Heidelberg, Germany). Chemicals tested were first dissolved in DMSO and subsequent dilutions were done in the cell culture medium. The final concentration of DMSO in the culture medium was 0.1% or less. For the proliferation assay, the […] FBS in the culture medium was replaced with 10% charcoal-stripped FBS. The cells were seeded in 96-well plates at a density of 10 000 cells/well and allowed to attach 24 h. After 24 h, the phenolic compounds diluted in culture medium were added to the wells and replaced every 2 days for 7 days of treatment. As reported above, MTS was used as an indirect colorimetric measurement of cell proliferation according to the manufacturer's instructions, except the plate were incubated 2 h instead of 4 h.

T-47D cells [4] = test: T-47D cell proliferation (estrogenicity / cytotoxicity), MTS; type: cell-based
Protocol: The library of phenolic compounds described above was tested on estrogen-sensitive breast cancer T-47D cells.
In Table 1, cell proliferation of control cells is set to 100%. Results are expressed as mean±SD of one experiment in triplicate.
(§1) CellTitter 96® Aqueous One Solution Cell Proliferation Assay was used as an indirect colorimetric measurement of cell proliferation according to the manufacturer's instructions. Briefly, after the treatments, 20 μL of MTS solution was added to each well (100 μL) of the plates and incubated at 37° C. for 2 h (Saos-2) or 4 h (T-47D). The absorbance at 490 nm was then measured with a Thermo max microplate reader (Molecular Devices, Sunnyvale, Calif.). The control (culture media+DMSO) is set to 100% of cell proliferation.
(§2) The cells were plated in 96-well plates at a density of 3 000 cells/well and allowed to attach for 48 h. After this pre-incubation, the inhibitors and the reference compounds diluted in fresh culture media were added to the wells and replaced every 2 days for 7 days of treatment.

steroid sulfatase (STS) = biological target: T1, steroid sulfatase (STS) (Homo sapiens, UniProt P08842); test: Steroid sulfatase (STS) inhibition, [3H]-E1S to [3H]-E1, homogenate of transfected HEK-293 cells; type: biochemical; details: transformation of E1S into E1 in homogenate of HEK-293 cells transfected with STS; read-out: Steroid Sulfatase Inhibition IC50
T1 construct: expressed in transfected cells; host or cells: HEK-293 cells stably transfected with STS (G418 selection), obtained from Dr. Van Luu-The; used as freeze-thaw homogenate
T1 sequence (P08842 22-583): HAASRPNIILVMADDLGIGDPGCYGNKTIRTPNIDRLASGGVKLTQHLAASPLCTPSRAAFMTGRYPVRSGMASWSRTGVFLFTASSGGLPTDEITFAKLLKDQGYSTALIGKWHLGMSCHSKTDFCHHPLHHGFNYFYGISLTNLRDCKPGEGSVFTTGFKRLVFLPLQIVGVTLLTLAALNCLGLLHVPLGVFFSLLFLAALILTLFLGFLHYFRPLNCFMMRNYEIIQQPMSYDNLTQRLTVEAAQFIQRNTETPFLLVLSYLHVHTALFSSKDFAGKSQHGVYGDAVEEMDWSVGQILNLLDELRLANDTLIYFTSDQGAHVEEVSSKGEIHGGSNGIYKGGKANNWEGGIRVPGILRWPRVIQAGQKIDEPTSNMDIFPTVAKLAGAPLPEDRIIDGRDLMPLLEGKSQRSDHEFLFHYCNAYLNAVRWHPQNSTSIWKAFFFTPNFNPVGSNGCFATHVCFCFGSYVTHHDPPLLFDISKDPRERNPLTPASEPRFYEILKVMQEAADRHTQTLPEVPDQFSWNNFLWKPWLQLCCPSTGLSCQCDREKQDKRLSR
Protocol: To test STS inhibition, we used homogenated HEK-293 cells overexpressing STS and evaluated the capacity of our compounds to inhibit the conversion of [^3H]-E1S into [^3H]-E1. […] This is outlined in FIG. 5.
An enzymatic assay previously described was used for the inhibition of the transformation of estrone sulfate (E1S) to estrone (E1) by STS.^72 Briefly, the transfected HEK-293 cells were homogenized by repeated (5 times) cycles of freezing (−80° C.) and thawing on ice (4° C.). The homogenates were then incubated for 2 h at 37° C. (shaking water bath) with or without inhibitors (0.01 μM-1 μM) in presence of [^3H]-E1S (9 nM), adjusted to 1 μM with E1S, in a Tris-acetate buffer (pH 7.4) containing 5 mM EDTA and 10% glycerol. After the incubation, 1 mL of xylene was added to each tube and the solutions were then centrifuged at 3000 rpm for 20 min to separate the organic ([^3H]-E1) and aqueous ([^3H]-E1S) phases. Once 500 μL of each phase was added to 10 mL of Biodegradable Counting Scintillant, the radioactivity of samples was recorded using a Wallac 1411 Liquid Scintillation Counter. The percentage of inhibition was determined by comparison with the control (buffer+homogenate+[^3H]-E1S) which was set to 0% of inhibition. IC50 value was obtained using GraphPad Prism 5 (GraphPad Software, La Jolla, Calif.).

T-47D cells [5] = test: T-47D cell proliferation in presence of E2 (antiestrogenicity); type: cell-based
Protocol: as §1, §2

[6] = tested on: osteoblast-like Saos-2 cells; test: Saos-2 cell proliferation, MTS; type: cell-based; details: for Bone cells Saos-2 (ER+) SERM effect Proliferative activity (%): in percentage of control (100%; 0.1 nM of estradiol)
Description: First, we wanted to evaluate their effect on cell proliferation. […] This is outlined in FIG. 8A. […] One of the main roles of osteoblasts in bone tissue is to construct a calcified extracellular matrix.^15 As such, bone formation is not principally due to osteoblasts proliferation but rather osteoblasts maturation into mature osteocytes. […] This is outlined in FIG. 8B.
as §1
Saos-2 cells were suspended in phenol-red free McCoy's 5A medium supplemented with 10% charcoal-stripped FBS, penicillin (100 IU/mL) and streptomycin (100 μg/mL). The cells were seeded in 96-well plates at a density of 3 000 cells/well and allowed to attach. After 24 h, the inhibitors and the reference compounds diluted in fresh culture media were added to the wells and replaced every 2 days for 7 days of treatment.

[7] = tested on: alkaline phosphatase (ALP) activity in Saos-2 cells; test: Alkaline phosphatase (ALP) activity in Saos-2 cells; type: cell-based
Protocol: ALP is an enzyme that releases inorganic phosphate from different intracellular substrates such as pyrophosphate and pyridoxal 5′-phosphate.^63 The inorganic phosphate is used in the formation of hydroxyapatite crystals which are then inserted in the extracellular protein scaffold to form the solid part of bone tissue.
Saos-2 cells were treated similarly as reported in the cell proliferation assay. The cells were seeded at a density of 2 000 cells/well and were treated with the inhibitors and the reference compounds for 3 days. The alkaline phosphatase (ALP) activity was measured using Sensolyte® pNPP Alkaline Phosphatase Assay Kit *Colorimetric* (AnaSpec, Fremont, Calif.) following the manufacturer's protocol. Briefly, after the 3 days of treatment, the cells were washed twice with washing buffer (provided with the kit) and lysed with 0.2% Triton X-100. The cell lysates were centrifuged and the supernatants were used to determine the ALP activity. The supernatants were deposed in a 96-well plate and incubated 30 min with a p-nitrophenyl phosphate solution (provided with the kit). The absorbance at 405 nm was measured with a Thermo max microplate reader (Molecular Devices, Sunnyvale, Calif.). The control (culture media+DMSO) is set to 100% of alkaline phosphatase activity.

MCF-7 (ER+) cells = test: Proliferative (estrogenic) activity on MCF-7 (ER+) cells; type: cell-based; details: 0.01 μM, 0.1 μM and 1 μM; 7 days
Protocol: The next step was to determine the presence or absence of estrogenic activity. To do so, cell proliferative assays were carried out on MCF-7 cells. […] Phenols of the corresponding sulfamate library 3-EO and 4-EO are referred to as library 3′-EO and library 4′-EO, respectively.
This cell assay was carried out according to a procedure previously described to determine the estrogenic activity of enzyme inhibitors on the growth of estrogen-sensitive MCF-7 cells.^77 All chemicals tested were first dissolved in DMSO and subsequent dilutions were done in the proper cell culture media. The final concentration of DMSO in the culture medium was 0.1% or less. 3-(4,5-dimethylthiazol-2-yl)-5-(3-carboxymethoxyphenyl)-2-(4-sulfophenyl)-2-H-tetrazolium (MTS) was used as an indirect colorimetric measurement of cell proliferation according to the manufacturer's instructions (Promega, Madison, Wis.). At the end of the treatments, 20 μL of MTS solution was added to each well (100 μL) and the MCF-7 cells were incubated 4 h at 37° C. The absorbance at 490 nm was then measured with a Thermo max microplate reader (Molecular Devices, Sunnyvale, Calif.). The control (culture media+DMSO) is set to 100% of cell proliferation.

[8] = 1 μM, in % of control (100%; 0.1 nM of estradiol)

Question: Which “ALP activity in Saos-2 cells” value [1] does the source give for `CCN(Cc1ccc(F)cc1)Cc1ccc(C(=O)N2CCc3ccc(O)cc3C2)cc1` [3′-EO-17] here?
Answer: Its value is 152%.

Question: Which “estrogenic activity: uterus weight of OVX mice” value ([2]; compound alone) does the source give for `COc1cc2c(cc1OS(N)(=O)=O)CC[C@@H]1[C@@H]2CC[C@@]2(C)[C@H]1CC[C@@]2(O)Cc1ccccc1` [EM-1913, 3-O-sulfamate 17α-benzyl-2-methoxy-estra-1,3,5(10)-trien-17β-ol] here?
Answer: The value was “did not stimulate the uterus weight”.

Question: What about the “stimulation of uterine weight induced by E1S in OVX mice” value ([2]; with E1S) of the same compound?
Answer: Its value is “effectively blocked”.

Question: And the “androgenic effect in the absence of DHEAS” value ([3]; injected in the absence of DHEAS)?
Answer: Its value is “No more harmful androgenic effect was detected”.

Question: What about the “effect of DHEAS on the weight of AR+ tissues (prostate and seminal vesicles)” value ([3]; with DHEAS) of the same compound?
Answer: Its value is “block the effect of DHEAS”.

Question: Which “proliferation of Saos-2 cells” value (Saos-2 (ER+) cells) does the source give for `CCN(Cc1ccc(C(=O)N2CCc3ccc(O)cc3C2)cc1)Cc1ccccn1` [3′-EO-14] here?
Answer: The value was 140%.

Question: What about the “ALP activity in Saos-2 cells” value [1] of the same compound?
Answer: The value was 147%.

Question: For `CC/C(=C(\c1ccccc1)c1ccc(OCCN(C)C)cc1)c1ccccc1` [tamoxifen, reference compound], which “ALP activity in Saos-2 cells” value [1] is on record?
Answer: Its value is 143%.

Question: For `Cl.O=C(c1ccc(OCCN2CCCCC2)cc1)c1c(-c2ccc(O)cc2)sc2cc(O)ccc12` [raloxifene, Raloxifene hydrochloride, reference compound], which “estrogenic activity on T-47D cells” value (T-47D cells [4]; 0.01 μM to 5 μM, 7 days) is on record?
Answer: The value was “no estrogenic activity”.

Question: And the “Breast cancer cells T-47D (ER+) Agonist activity (%)” value (T-47D cells [4]; [8])?
Answer: The value was 0%.

Question: What about the “cytotoxicity on T-47D cells” value (T-47D cells [4]; 5 μM) of the same compound?
Answer: The value was “induced some cytotoxicity”.

Question: And the IC50 (steroid sulfatase (STS))?
Answer: The IC50 was over 1000 nM.

Question: And the “block of E2 stimulation of T-47D proliferation” value (T-47D cells [5]; 0.01 μM to 1 μM, E2 0.1 nM)?
Answer: The value was “able to block the E2 stimulation”.

Question: What about the “Breast cancer cells T-47D (ER+) Antagonist activity (%)” value (T-47D cells [5]; [8]) of the same compound?
Answer: The value was 96%.

Question: What about the “cytotoxicity on T-47D cells in presence of E2” value (T-47D cells [5]; 5 μM, E2 0.1 nM) of the same compound?
Answer: Its value is “some cytotoxicity”.

Question: And the “Saos-2 cell proliferation, dose response” value ([6]; 1 nM to 1 μM, 7 days)?
Answer: The value was “apparent dose-dependent response”.

Question: What about the “Bone cells Saos-2 (ER+) SERM effect Proliferative activity (%)” value ([6]; 0.1 μM) of the same compound?
Answer: The value was 75%.

Question: What about the “Bone cells Saos-2 (ER+) SERM effect Proliferative activity (%)” value ([6]; 1 μM) of the same compound?
Answer: Its value is 83%.

Question: And the “Bone cells Saos-2 (ER+) SERM effect Alkaline phosphatase activity (%)” value ([7]; 0.1 nM)?
Answer: The value was 86%.

Question: What about the “stimulation of ALP activity in presence of ICI-164,384 or MPP + PHTPP” value ([7]; 0.1 nM compound, antagonists 1 μM, 3 days) of the same compound?
Answer: The value was “completely blocked the stimulation”.

Question: And the “proliferation of Saos-2 cells” value (Saos-2 (ER+) cells)?
Answer: Its value is 123%.

Question: Which “stimulation of MCF-7 cell growth” value (MCF-7 (ER+) cells) does the source give for `O=C(c1ccc(CN(Cc2ccccc2)Cc2ccco2)cc1)N1CCc2ccc(O)cc2C1` [3′-EO-11] here?
Answer: The value was “did not stimulate”.
